In patent publication US11034725B2, “Compositions and methods for treating cardiovascular disease” (Genentech, Inc., priority 2016, dated 2021):
Square brackets hold non-standard residues; d marks the D form. Peptide text beside a SMILES is read from it. * marks the point of attachment. Propanoyl(3-(4-Cl-Ph)) = O=C(CCc1ccc(Cl)cc1)*; Dihydrocaffeoyl = O=C(CCc1ccc(O)c(O)c1)*; X45 = CC(=O)c1ccc(OCCCC(=O)*)cc1; hArg = N=C(N)NCCCC[C@H](N)C(=O)O; X24 = CN1CCC(n2cc(C(=O)*)cn2)C1; X36 = CC(=O)c1ccc(OCCC(=O)*)cc1; X8 = O=C(c1ccc(N2CCOCC2)nc1)*; X38 = O=C(CC1CCS(=O)(=O)C1)*; X42 = O=C(c1ccc2cc[nH]c2c1)*; X25 = COc1cc(CCC(=O)*)ccc1O; X7 = CCc1ccc(OCCCC(=O)*)cc1; X12 = O=C(CCCc1ccc(F)cc1)*; X15 = COc1cccc(CCC(=O)*)c1; X10 = Nc1cccc(CCC(=O)*)c1; X30 = O=C(CCc1cccc(O)c1)*; X35 = Nc1ccc(CCC(=O)*)cn1; X26 = O=C1CCCN1CCC(=O)*

Tests used:
[1] = target: PCSK9 (Homo sapiens, UniProt Q8NBP7); assay: PCSK9/EGF(A) TR-FRET binding assay; details: TR-FRET; Table 8E, additional compounds; read-out: PCSK9/EGF(A) IC50
Method: The former was based on a TF-FRET assay to measure the association of the EGF(A) domain of the LDLR to PCSK9 (“PCSK9/EGF(A) binding assay”) whilst the latter was based on a TR-FRET assay to measure binding of Ab20 to PCSK9Δhelix (“PCSK9Δhelix/Ab20 binding assay”).
The ability of compounds to inhibit binding to PCSK9 was evaluated with a panel of time-resolved fluorescence resonance energy transfer (TR-FRET) binding assays. […] The PCSK9Δhelix/Ab20 binding assay evaluated the ability of compounds to compete with Ab20 for binding to the N-terminal groove region in a His-tagged, PCSK9Δhelix construct. […] Signal generation in the PCSK9 binding assays was dependent upon the binding interaction to bring into close proximity the His-tag on the PCSK9 and the Fc-tag on the ligand. Anti-His-APC was bound to the His-tag, and anti-Fc-europium was bound to the Fc-tag. When these two antibodies were in close proximity and were irradiated with light at 340 nm, the europium was excited and emitted energy at 615 nm. This energy was taken up by the APC and was emitted as light at 665 nm. Compounds that competed with the ligand reduced the energy transfer and thus the emission at 665 nm. In the His-EGFA-Fc molecule in the counterscreen, the two tags were always in close proximity, thus any reduction in emission at 665 nm was due to interference with the detection system.
Compounds were solubilized and dilutions were prepared in DMSO. […] The plate was centrifuged to mix the well contents and allowed to incubate for 30 min. […] The TR-FRET signal was read on a ViewLux reader (PerkinElmer) with excitation at 340 nm and emission at 615 and 665 nm with a 50-μs time delay between excitation and measurement of emission. The TR-FRET ratio was calculated as the fluorescence emission at 665 nm divided by the fluorescence emission at 615 nm. The normalized TR-FRET ratios were plotted as a function of the compound concentrations, and the IC50 values were determined using a 4-parameter logistic regression.
In black 1536-well assay plates (MaKO, Aurora® Microplates, Whitefish, Mont.), 40 nL of peptide in DMSO were preincubated with 2 μL His-tagged PCSK9 plus anti-His-allophycocyanin in assay buffer (50 mM Tris-HCl, pH 7.5, 150 mM NaCl, 2 mM CaCl2, 0.01% Tween®-20, 0.1% bovine gamma globulins, and protease inhibitor cocktail) for 30 min. Then 2 μL of Fc-tagged ligand and anti-Fc-europium in assay buffer were added and allowed to incubate for 2 h.

[2] = target: T1, PCSK9Δhelix (Homo sapiens, UniProt Q8NBP7); assay: PCSK9Δhelix/Ab20 TR-FRET binding assay; details: TR-FRET; Table 8E, additional compounds; read-out: PCSK9Δhelix/Ab20 IC50
T1 construct: Human PCSK9 construct M1-Q692 with an engineered TEV site (residue deletion Y166, R167); made in house; host or cells: CHO
T1 sequence (Q8NBP7 with tags, fused parts or gaps limits assumed): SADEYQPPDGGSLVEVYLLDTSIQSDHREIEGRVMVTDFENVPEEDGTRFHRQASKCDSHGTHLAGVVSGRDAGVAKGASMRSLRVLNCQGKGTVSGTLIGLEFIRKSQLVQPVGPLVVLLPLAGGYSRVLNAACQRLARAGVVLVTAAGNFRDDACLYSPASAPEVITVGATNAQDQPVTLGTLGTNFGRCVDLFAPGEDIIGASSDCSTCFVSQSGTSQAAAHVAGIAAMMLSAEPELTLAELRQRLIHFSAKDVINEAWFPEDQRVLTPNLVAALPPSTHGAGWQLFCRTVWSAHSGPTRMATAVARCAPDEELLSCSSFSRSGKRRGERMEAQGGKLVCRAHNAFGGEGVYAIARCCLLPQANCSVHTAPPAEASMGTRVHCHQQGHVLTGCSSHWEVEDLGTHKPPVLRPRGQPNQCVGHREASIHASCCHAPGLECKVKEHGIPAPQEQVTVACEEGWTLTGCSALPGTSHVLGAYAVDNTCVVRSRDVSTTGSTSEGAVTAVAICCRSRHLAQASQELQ
T1 sequence (Q8NBP7 31-152 partner limits assumed): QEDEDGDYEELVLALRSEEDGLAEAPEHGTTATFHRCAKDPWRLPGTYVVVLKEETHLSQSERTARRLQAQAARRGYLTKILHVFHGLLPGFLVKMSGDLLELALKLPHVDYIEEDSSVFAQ

Chain of PCSK9 (Q8NBP7 153-692): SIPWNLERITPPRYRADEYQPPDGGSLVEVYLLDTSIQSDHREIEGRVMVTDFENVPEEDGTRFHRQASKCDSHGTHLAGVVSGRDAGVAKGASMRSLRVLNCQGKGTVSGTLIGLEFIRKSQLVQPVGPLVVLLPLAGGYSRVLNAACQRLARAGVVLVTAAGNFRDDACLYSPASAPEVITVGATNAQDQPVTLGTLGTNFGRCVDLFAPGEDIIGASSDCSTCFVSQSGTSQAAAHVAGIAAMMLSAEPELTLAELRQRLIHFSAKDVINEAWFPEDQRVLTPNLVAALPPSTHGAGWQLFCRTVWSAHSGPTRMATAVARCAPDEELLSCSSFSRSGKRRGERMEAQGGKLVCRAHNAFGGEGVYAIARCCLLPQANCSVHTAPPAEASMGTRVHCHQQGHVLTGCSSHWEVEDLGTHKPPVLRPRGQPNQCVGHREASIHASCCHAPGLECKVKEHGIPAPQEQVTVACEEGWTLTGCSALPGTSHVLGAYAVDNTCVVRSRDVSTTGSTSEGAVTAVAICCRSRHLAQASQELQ
Chain of PCSK9 (Q8NBP7 31-152 partner limits assumed): as the sequence (Q8NBP7 31-152 partner limits assumed) above

| SMILES | IC50 [1] [µM] | IC50 [2] [µM] |
| --- | --- | --- |
| CCc1ccc(OCCCC(=O)N[C@@H](Cc2c[nH]c3ccccc23)C(=O)N[C@@H](CC(N)=O)C(=O)N[C@@H](CC(C)C)C(=O)N[C@H](C(=O)N[C@@H](CCCCNC(=N)N)C(=O)N[C@H](C(=O)NCC(=O)N[C@@H](CC(C)C)C(=O)N[C@@H](CC(C)C)C(=O)N[C@@H](CCCNC(=N)N)C(N)=O)[C@@H](C)CC)C(C)C)cc1 [Compound 210] (X7-WNLV[hArg]IGLLR-NH2) | 3 | 0.84 |
| CC[C@H](C)[C@H](NC(=O)[C@H](CCCCNC(=N)N)NC(=O)[C@@H](NC(=O)[C@H](CC(C)C)NC(=O)[C@H](CC(N)=O)NC(=O)[C@H](Cc1c[nH]c2ccccc12)NC(=O)CCc1ccc(O)c(OC)c1)C(C)C)C(=O)NCC(=O)N[C@@H](CC(C)C)C(=O)N[C@@H](CC(C)C)C(=O)N[C@@H](CCCNC(=N)N)C(N)=O [Compound 213] (X25-WNLV[hArg]IGLLR-NH2) | 3.8 | 0.2 |
| CC[C@H](C)[C@H](NC(=O)[C@H](CCCCNC(=N)N)NC(=O)[C@@H](NC(=O)[C@H](CC(C)C)NC(=O)[C@H](CC(N)=O)NC(=O)[C@H](Cc1c[nH]c2ccccc12)NC(=O)CCc1ccc(Cl)cc1)C(C)C)C(=O)NCC(=O)N[C@@H](CC(C)C)C(=O)N[C@@H](CC(C)C)C(=O)N[C@@H](CCCNC(=N)N)C(N)=O [Compound 199] ({Propanoyl(3-(4-Cl-Ph))}-WNLV[hArg]IGLLR-NH2) | 0.98 | 0.2 |
| CC[C@H](C)[C@H](NC(=O)[C@H](CCCCNC(=N)N)NC(=O)[C@@H](NC(=O)[C@H](CC(C)C)NC(=O)[C@H](CC(N)=O)NC(=O)[C@H](Cc1c[nH]c2ccccc12)NC(=O)CCOc1ccc(C(C)=O)cc1)C(C)C)C(=O)NCC(=O)N[C@@H](CC(C)C)C(=O)N[C@@H](CC(C)C)C(=O)N[C@@H](CCCNC(=N)N)C(N)=O [Compound 205] (X36-WNLV[hArg]IGLLR-NH2) | 2.8 | 0.64 |
| CC[C@H](C)[C@H](NC(=O)[C@H](CCCCNC(=N)N)NC(=O)[C@@H](NC(=O)[C@H](CC(C)C)NC(=O)[C@H](CC(N)=O)NC(=O)[C@H](Cc1c[nH]c2ccccc12)NC(=O)CCc1cccc(O)c1)C(C)C)C(=O)NCC(=O)N[C@@H](CC(C)C)C(=O)N[C@@H](CC(C)C)C(=O)N[C@@H](CCCNC(=N)N)C(N)=O [Compound 217] (X30-WNLV[hArg]IGLLR-NH2) | 4.1 | 0.39 |
| CC[C@H](C)[C@H](NC(=O)[C@H](CCCCNC(=N)N)NC(=O)[C@@H](NC(=O)[C@H](CC(C)C)NC(=O)[C@H](CC(N)=O)NC(=O)[C@H](Cc1c[nH]c2ccccc12)NC(=O)CCCc1ccc(F)cc1)C(C)C)C(=O)NCC(=O)N[C@@H](CC(C)C)C(=O)N[C@@H](CC(C)C)C(=O)N[C@@H](CCCNC(=N)N)C(N)=O [Compound 196] (X12-WNLV[hArg]IGLLR-NH2) | 7.3 | 1.4 |
| CC[C@H](C)[C@H](NC(=O)[C@H](CCCCNC(=N)N)NC(=O)[C@@H](NC(=O)[C@H](CC(C)C)NC(=O)[C@H](CC(N)=O)NC(=O)[C@H](Cc1c[nH]c2ccccc12)NC(=O)CCc1cccc(OC)c1)C(C)C)C(=O)NCC(=O)N[C@@H](CC(C)C)C(=O)N[C@@H](CC(C)C)C(=O)N[C@@H](CCCNC(=N)N)C(N)=O [Compound 202] (X15-WNLV[hArg]IGLLR-NH2) | 2.6 | 0.34 |
| CC[C@H](C)[C@H](NC(=O)[C@H](CCCNC(=N)N)NC(=O)[C@@H](NC(=O)[C@H](CC(C)C)NC(=O)[C@H](CC(N)=O)NC(=O)[C@H](Cc1c[nH]c2ccccc12)NC(=O)c1cnn(C2CCN(C)C2)c1)C(C)C)C(=O)NCC(=O)N[C@@H](CC(C)C)C(=O)N[C@@H](CC(C)C)C(=O)N[C@@H](CCCNC(=N)N)C(N)=O (some centres unmarked) [Compound 129] (X24-WNLVRIGLLR-NH2) | ≥ 50 | 23 |
| CC[C@H](C)[C@H](NC(=O)[C@H](CCCNC(=N)N)NC(=O)[C@@H](NC(=O)[C@H](CC(C)C)NC(=O)[C@H](CC(N)=O)NC(=O)[C@H](Cc1c[nH]c2ccccc12)NC(=O)c1ccc(N2CCOCC2)nc1)C(C)C)C(=O)NCC(=O)N[C@@H](CC(C)C)C(=O)N[C@@H](CC(C)C)C(=O)N[C@@H](CCCNC(=N)N)C(N)=O [Compound 134] (X8-WNLVRIGLLR-NH2) | ≥ 50 | 4.2 |
| CC[C@H](C)[C@H](NC(=O)[C@H](CCCCNC(=N)N)NC(=O)[C@@H](NC(=O)[C@H](CC(C)C)NC(=O)[C@H](CC(N)=O)NC(=O)[C@H](Cc1c[nH]c2ccccc12)NC(=O)c1ccc2cc[nH]c2c1)C(C)C)C(=O)NCC(=O)N[C@@H](CC(C)C)C(=O)N[C@@H](CC(C)C)C(=O)N[C@@H](CCCNC(=N)N)C(N)=O [Compound 222] (X42-WNLV[hArg]IGLLR-NH2) | 21 | 1.4 |
| CC[C@H](C)[C@H](NC(=O)[C@H](CCCCNC(=N)N)NC(=O)[C@@H](NC(=O)[C@H](CC(C)C)NC(=O)[C@H](CC(N)=O)NC(=O)[C@H](Cc1c[nH]c2ccccc12)NC(=O)CCc1cccc(N)c1)C(C)C)C(=O)NCC(=O)N[C@@H](CC(C)C)C(=O)N[C@@H](CC(C)C)C(=O)N[C@@H](CCCNC(=N)N)C(N)=O [Compound 215] (X10-WNLV[hArg]IGLLR-NH2) | 7 | 0.48 |
| CC[C@H](C)[C@H](NC(=O)[C@H](CCCNC(=N)N)NC(=O)[C@@H](NC(=O)[C@H](CC(C)C)NC(=O)[C@H](CC(N)=O)NC(=O)[C@H](Cc1c[nH]c2ccccc12)NC(=O)CCCOc1ccc(C(C)=O)cc1)C(C)C)C(=O)NCC(=O)N[C@@H](CC(C)C)C(=O)N[C@H](C(=O)N[C@@H](CCCNC(=N)N)C(N)=O)[C@@H](C)O [Compound 183] (X45-WNLVRIGLTR-NH2) | 18 | 2.5 |
| CC[C@H](C)[C@H](NC(=O)[C@H](CCCNC(=N)N)NC(=O)[C@@H](NC(=O)[C@H](CC(C)C)NC(=O)[C@H](CC(N)=O)NC(=O)[C@H](Cc1c[nH]c2ccccc12)NC(=O)CCN1CCCC1=O)C(C)C)C(=O)NCC(=O)N[C@@H](CC(C)C)C(=O)N[C@@H](CC(C)C)C(=O)N[C@@H](CCCNC(=N)N)C(N)=O [Compound 128] (X26-WNLVRIGLLR-NH2) | ≥ 50 | 7.5 |
| CC[C@H](C)[C@H](NC(=O)[C@H](CCCNC(=N)N)NC(=O)[C@@H](NC(=O)[C@H](CC(C)C)NC(=O)[C@H](CC(N)=O)NC(=O)[C@H](Cc1c[nH]c2ccccc12)NC(=O)CC1CCS(=O)(=O)C1)C(C)C)C(=O)NCC(=O)N[C@@H](CC(C)C)C(=O)N[C@@H](CC(C)C)C(=O)N[C@@H](CCCNC(=N)N)C(N)=O (some centres unmarked) [Compound 139] (X38-WNLVRIGLLR-NH2) | ≥ 50 | 19 |
| CC[C@H](C)[C@H](NC(=O)[C@H](CCCNC(=N)N)NC(=O)[C@@H](NC(=O)[C@H](CC(C)C)NC(=O)[C@H](CC(N)=O)NC(=O)[C@H](Cc1c[nH]c2ccccc12)NC(=O)CCc1ccc(N)nc1)C(C)C)C(=O)NCC(=O)N[C@@H](CC(C)C)C(=O)N[C@H](C(=O)N[C@@H](CCCNC(=N)N)C(N)=O)[C@@H](C)O [Compound 171] (X35-WNLVRIGLTR-NH2) | ≥ 50 | 7.7 |
| CC[C@H](C)[C@H](NC(=O)[C@H](CCCCNC(=N)N)NC(=O)[C@@H](NC(=O)[C@H](CC(C)C)NC(=O)[C@H](CC(N)=O)NC(=O)[C@H](Cc1c[nH]c2ccccc12)NC(=O)CCc1ccc(O)c(O)c1)C(C)C)C(=O)NCC(=O)N[C@@H](CC(C)C)C(=O)N[C@@H](CC(C)C)C(=O)N[C@@H](CCCNC(=N)N)C(N)=O [Compound 224] (Dihydrocaffeoyl-WNLV[hArg]IGLLR-NH2) | 7 | 0.53 |
